System: patient with mitochondrial disease
Experiment: Clinical Example 2: administration to a patient with mitochondrial disease
Assay type: in vivo, human
Conditions: agent dose in terms of L-arginine 0.5 g/kg/hr
Method: The agent for treating mitochondrial disease of the present invention was administered to a patient with mitochondrial disease at a dose in terms of L-arginine of 0.5 g/kg/hr.

In the case of `N=C(N)NCCC[C@H](N)C(=O)O` [L-arginine alone, L-arginine], the “effects on the symptoms of the mitochondrial disease” value is reported as “did not sufficiently exhibit” and the vomiting is reported as “repetitive vomiting”.
